From patent US20230183237A1, “COMPETITIVE AND NONCOMPETITIVE INHIBITORS OF THE MUSCARINIC ACETYLCHOLINE RECEPTOR M5” (Vanderbilt University, priority 2020, published 2023) come the findings set out here.

This assay concerns the target T1, hM5 (Homo sapiens, UniProt P08912).
T1 construct: expressed in transfected cells
T1 sequence (P08912 1-532): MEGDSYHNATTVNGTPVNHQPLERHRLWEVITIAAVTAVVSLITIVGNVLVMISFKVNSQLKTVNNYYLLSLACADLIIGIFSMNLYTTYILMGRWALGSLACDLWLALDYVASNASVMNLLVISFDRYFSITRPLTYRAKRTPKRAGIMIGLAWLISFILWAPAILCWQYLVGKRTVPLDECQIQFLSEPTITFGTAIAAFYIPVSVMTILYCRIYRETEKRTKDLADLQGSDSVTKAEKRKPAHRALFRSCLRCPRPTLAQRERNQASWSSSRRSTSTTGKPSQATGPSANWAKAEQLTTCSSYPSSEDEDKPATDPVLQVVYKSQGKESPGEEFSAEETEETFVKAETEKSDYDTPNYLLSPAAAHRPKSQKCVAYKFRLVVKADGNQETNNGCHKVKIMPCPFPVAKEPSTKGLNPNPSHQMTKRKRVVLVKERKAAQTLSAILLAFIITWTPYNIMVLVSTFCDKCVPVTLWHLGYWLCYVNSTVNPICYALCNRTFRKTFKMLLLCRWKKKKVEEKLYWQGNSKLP
Description: Calcium mobilization concentration-response (IC50 vs EC80 acetylcholine), CHO hM5. It counts as cell-based. The note with it: CELL LINE hM5; vs EC80 acetylcholine; read-out: IC50. Summed up: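 IC50 values derive from percent maximal acetylcholine response after an EC80 ACh addition, measured as kinetic calcium fluorescence (static ratio, max−min). Test compounds were added 140 s before agonist. Cells: stable hM5-CHO in HEPES-buffered HBSS with 2.5 mM probenecid, pH 7.4; ≥3 independent triplicate determinations.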
On the technique in general: A change in cytosolic calcium serves as a functional read-out for many receptors and channels.

Where only a bound is given, the exact number is not on record here.

As to `Cc1c(S(=O)(=O)N2CCC(F)(c3cn4ncnc4cc3F)CC2)cnn1C` [Compound 501, 6-(1-((1,5-dimethyl-1H-pyrazol-4-yl)sulfonyl)-4-fluoropiperidin-4-yl)-7-fluoro-[1,2,4]triazolo[1,5-a]pyridine], the 50% inhibitory concentration (IC50) worked out at 2090 nM.

Take `Cn1ncc(S(=O)(=O)N2CCC(F)(c3cn4ncnc4cc3F)CC2)c1Cl` [Compound 502, 6-(1-((5-chloro-1-methyl-1H-pyrazol-4-yl)sulfonyl)-4-fluoropiperidin-4-yl)-7-fluoro-[1,2,4]triazolo[1,5-a]pyridine]: the IC50 turned out to be 1630 nM.

Consider `Cn1ncc(S(=O)(=O)N2CCC(F)(c3cn4ncnc4cc3F)CC2)c1C#N` [Compound 503, 4-((4-fluoro-4-(7-fluoro-[1,2,4]triazolo[1,5-a]pyridin-6-yl)piperidin-1-yl)sulfonyl)-1-methyl-1H-pyrazole-5-carbonitrile], for which the concentration for half-maximal inhibition (IC50) was 1150 nM.

Consider `Cn1ncc(S(=O)(=O)N2CCC(F)(c3cn4ncnc4cc3F)CC2)c1C(F)F` [Compound 504, 6-(1-((5-(difluoromethyl)-1-methyl-1H-pyrazol-4-yl)sulfonyl)-4-fluoropiperidin-4-yl)-7-fiuoro-[1,2,4]triazolo[1,5-a]pyridine], for which the half-inhibitory concentration (IC50) came to 1260 nM.

Regarding `O=S(=O)(c1cnn2c1CCC2)N1CCC(F)(c2cn3ncnc3cc2F)CC1` [Compound 505, 6-(1-((5,6-dihydro-4H-pyrrolo[1,2-b]pyrazol-3-yl)sulfonyl)-4-fluoropiperidin-4-yl)-7-fluoro-[1,2,4]triazolo[1,5-a]pyridine], the IC50 turned out to be 1310 nM.

As to `O=S(=O)(c1cnn2c1OCCC2)N1CCC(F)(c2cn3ncnc3cc2F)CC1` [Compound 506, 3-((4-fluoro-4-(7-fluoro-[1,2,4]triazolo[1,5-a]pyridin-6-yl)piperidin-1-yl)sulfonyl)-6,7-dihydro-5H-pyrazolo[5,1-b][1,3]oxazine], the IC50 was 946 nM.

Consider `Cc1ncc(S(=O)(=O)N2CCC(c3cn4ncnc4cc3F)CC2)o1` [Compound 507, 5-((4-(7-fluoro-[1,2,4]triazolo[1,5-a]pyridin-6-yl)piperidin-1-yl)sulfonyl)-2-methyloxazole], for which the IC50 was 3070 nM.

Consider `Cc1cc2ncnn2cc1C1CCN(S(=O)(=O)c2cnn3ccccc23)CC1` [Compound 508, 7-methyl-6-(1-(pyrazolo[1,5-a]pyridin-3-ylsulfonyl)piperidin-4-yl)-[1,2,4]triazolo[1,5-a]pyridine], for which the IC50 was 20 nM.

Regarding `CCc1cc2ncnn2cc1C1CCN(S(=O)(=O)c2cnn3ccccc23)CC1` [Compound 509, 7-ethyl-6-(1-(pyrazolo[1,5-a]pyridin-3-ylsulfonyl)piperidin-4-yl)-[1,2,4]triazolo[1,5-a]pyridine], the IC50 was determined as 150 nM.

On to `O=S(=O)(c1cnn2ccccc12)N1CCC(c2cn3ncnc3cc2C(F)F)CC1` [Compound 510, 7-(difluoromethyl)-6-(1-(pyrazolo[1,5-a]pyridin-3-ylsulfonyl)piperidin-4-yl)-[1,2,4]triazolo[1,5-a]pyridine], for which the IC50 amounted to 60 nM.

For the compound `O=S(=O)(c1cnn2ccccc12)N1CCC(c2cn3ncnc3cc2C(F)(F)F)CC1` [Compound 511, 6-(1-(pyrazolo[1,5-a]pyridin-3-ylsulfonyl)piperidin-4-yl)-7-(trifluoromethyl)-[1,2,4]triazolo[1,5-a]pyridine], the IC50 was found to be 102 nM.

For `CCc1cc2ncnn2cc1C1CCN(S(=O)(=O)c2cnc3sccn23)CC1` [Compound 512, 5-((4-(7-ethyl-[1,2,4]triazolo[1,5-a]pyridin-6-yl)piperidin-1-yl)sulfonyl)imidazo[2,1-b]thiazole], the IC50 stood at 115 nM.

Turning to `CCc1cc2ncnn2cc1C1CCN(S(=O)(=O)c2cnc(Cl)s2)CC1` [Compound 513, 2-chloro-5-((4-(7-ethyl-[1,2,4]triazolo[1,5-a]pyridin-6-yl)piperidin-1-yl)sulfonyl)thiazole], the half-maximal inhibitory concentration (IC50) came out at 4770 nM.

Consider `CCc1cc2ncnn2cc1C1CCN(S(=O)(=O)c2nncn2C)CC1` [Compound 514, 7-ethyl-6-(1-((4-methyl-4H-1,2,4-triazol-3-yl)sulfonyl)piperidin-4-yl)-[1,2,4]triazolo[1,5-a]pyridine], for which the IC50 was more than 10000 nM.

`O=S(=O)(c1cnc2sccn12)N1CCC(c2cn3ncnc3cc2C(F)F)CC1` [Compound 515, 5-((4-(7-(difluoromethyl)-[1,2,4]triazolo[1,5-a]pyridin-6-yl)piperidin-1-yl)sulfonyl)imidazo[2,1-b]thiazole]: the IC50 stood at 34 nM.

As to `O=S(=O)(c1cnc(Cl)s1)N1CCC(c2cn3ncnc3cc2C(F)F)CC1` [Compound 516, 2-chloro-5-((4-(7-(difluoromethyl)-[1,2,4]triazolo[1,5-a]pyridin-6-yl)piperidin-1-yl)sulfonyl)thiazole], the IC50 is 1700 nM.

As to `Cn1cnnc1S(=O)(=O)N1CCC(c2cn3ncnc3cc2C(F)F)CC1` [Compound 517, 7-(difluoromethyl)-6-(1-((4-methyl-4H-1,2,4-triazol-3-yl)sulfonyl)piperidin-4-yl)-[1,2,4]triazolo[1,5-a]pyridine], the IC50 is more than 10000 nM.

`O=S(=O)(c1cnc2sccn12)N1CCC(c2cn3ncnc3cc2C(F)(F)F)CC1` [Compound 518, 5-((4-(7-(trifluoromethyl)-[1,2,4]triazolo[1,5-a]pyridin-6-yl)piperidin-1-yl)sulfonyl)imidazo[2,1-b]thiazole]: the IC50 stood at 68 nM.

Regarding `O=S(=O)(c1cnc(Cl)s1)N1CCC(c2cn3ncnc3cc2C(F)(F)F)CC1` [Compound 519, 2-chloro-5-((4-(7-(trifluoromethyl)-[1,2,4]triazolo[1,5-a]pyridin-6-yl)piperidin-1-yl)sulfonyl)thiazole], the half-maximal inhibitory concentration (IC50) was determined as 1590 nM.

Consider `Cn1cnnc1S(=O)(=O)N1CCC(c2cn3ncnc3cc2C(F)(F)F)CC1` [Compound 520, 6-(1-((4-methyl-4H-1,2,4-triazol-3-yl)sulfonyl)piperidin-4-yl)-7-(trifluoromethyl)-[1,2,4]triazolo[1,5-a]pyridine], for which the IC50 was more than 10000 nM.

Consider `O=S(=O)(c1cnn2ccccc12)N1CCC(c2cn3ncnc3cc2F)CC1` [Compound 521, 7-fluoro-6-(1-(pyrazolo[1,5-a]pyridin-3-ylsulfonyl)piperidin-4-yl)-[1,2,4]triazolo[1,5-a]pyridine], for which the IC50 was determined as 169 nM.

`Cc1cc2ncnn2cc1C1CCN(S(=O)(=O)c2cnn(C)c2Br)CC1` [Compound 522, 6-(1-((5-Bromo-1-methyl-1H-pyrazol-4-yl)sulfonyl)piperidin-4-yl)-7-methyl-[1,2,4]triazolo[1,5-a]pyridine]: the IC50 came to 8 nM.

`Cc1cc2ncnn2cc1C1CCN(S(=O)(=O)c2cnc(Cl)s2)CC1` [Compound 523, 2-chloro-5-((4-(7-methyl-[1,2,4]triazolo[1,5-a]pyridin-6-yl)piperidin-1-yl)sulfonyl)thiazole]: the concentration for half-maximal inhibition (IC50) amounted to 291 nM.

As for `Cc1cc2ncnn2cc1C1CCN(S(=O)(=O)c2nncn2C)CC1` [Compound 524, 7-methyl-6-(1-((4-methyl-4H-1,2,4-triazol-3-yl)sulfonyl)piperidin-4-yl)-[1,2,4]triazolo[1,5-a]pyridine], the IC50 was found to be 493 nM.

As to `O=S(=O)(c1cnc2sccn12)N1CCC(c2cn3ncnc3cc2F)CC1` [Compound 525, 5-((4-(7-fluoro-[1,2,4]triazolo[1,5-a]pyridin-6-yl)piperidin-1-yl)sulfonyl)imidazo[2,1-b]thiazole], the IC50 came out at 186 nM.

With `Cc1cc2ncnn2cc1C1CCN(S(=O)(=O)c2cnc3sccn23)CC1` [Compound 526, 5-((4-(7-methyl-[1,2,4]triazolo[1,5-a]pyridin-6-yl)piperidin-1-yl)sulfonyl)imidazo[2,1-b]thiazole], the IC50 is 14 nM.

Take `[2H]C1([2H])CC(c2cn3ncnc3c(F)c2C)CC([2H])([2H])N1S(=O)(=O)c1cc(C)ns1` [Compound 527, 5-((4-(8-fluoro-7-methyl-[1,2,4]triazolo[1,5-a]pyridin-6-yl)piperidin-1-yl-2,2,6,6-d4)sulfonyl)-3-methylisothiazole]: the IC50 was 58 nM.

With `[2H]C1([2H])CC(c2cn3ncnc3cc2F)CC([2H])([2H])N1S(=O)(=O)c1cc(C)ns1` [Compound 528, 5-((4-(7-fluoro-[1,2,4]triazolo[1,5-a]pyridin-6-yl)piperidin-1-yl-2,2,6,6-d4)sulfonyl)-3-methylisothiazole], the IC50 is 595 nM.

In the case of `Cc1cc2ncnn2cc1C1CCN(S(=O)(=O)c2cnn(C)c2CN)CC1` [Compound 529, (1-methyl-4-((4-(7-methyl-[1,2,4]triazolo[1,5-a]pyridin-6-yl)piperidin-1-yl)sulfonyl)-1H-pyrazol-5-yl)methanamine], the IC50 worked out at 371 nM.

As for `Cn1ncc(S(=O)(=O)N2CCC(c3cn4ncnc4cc3F)CC2)c1CN` [Compound 530, (4-((4-(7-fluoro-[1,2,4]triazolo[1,5-a]pyridin-6-yl)piperidin-1-yl)sulfonyl)-1-methyl-1H-pyrazol-5-yl)methanamine], the IC50 was more than 10000 nM.

For the compound `O=S(=O)(c1cnc2sccn12)N1CCC(c2cn3ncnc3cc2Cl)CC1` [Compound 531, 5-((4-(7-chloro-[1,2,4]triazolo[1,5-a]pyridin-6-yl)piperidin-1-yl)sulfonyl)imidazo[2,1-b]thiazole], the IC50 was found to be 6 nM.

One may read the IC50 as the concentration that gives 50% inhibition.
